# Assay results published in patent publication US20260071518A1, “SURFACTANT FOR CARBON DIOXIDE STORAGE” (TOTALENERGIES ONETECH, priority 2022, published 2026).
# Key:
# [1] = slim tube packed with sand, co-injection of carbon dioxide and surfactant-brine composition, apparent viscosity (Example 1); assay type: physicochemical; details: 0.2 wt. % in 220 g/L NaCl brine, pH=6, 25° C., 150 bar, carbon dioxide fraction 50%, versus comparative surfactant compounds
# Protocol: In this example, experiments were conducted within a slim tube packed with sand. The tube length was 25 cm, the tube diameter was 1 cm.
# Various surfactant compositions were made by dissolving 0.2 wt. % of an individual surfactant compound in brine having a NaCl content of 220 g/L, buffered at pH=6 with a sodium acetate/acetic acid buffer.
# Carbon dioxide and the surfactant-brine composition were co-injected into the slim tube via two separate inlets, at a temperature of 25° C. and at a pressure of 150 bar, with a total flow rate of 60 ft/day and a carbon dioxide fraction of 50%.
# The pressure drop across the tube was measured and the apparent viscosity was calculated based on Darcy's law. Specifically, the apparent viscosity was obtained according to the following formula: (permeability×pressure gradient)/(volume flow/inlet area of the core (tube)).
# [2] = carbonate core co-injection of carbon dioxide and surfactant-water composition, gas saturation and apparent viscosity (Example 4); assay type: physicochemical; details: 0.2 wt. % in water, 110° C., 150 bar
# Protocol: In this example, experiments were conducted using a carbonate core. The core was 30.1 cm long, having a diameter of 3.8 cm, a porosity of 28%, permeability of 130 md.
# A surfactant-water composition was prepared by dissolving 0.2 wt. % of a surfactant compound (compound E of Example 1, N^1-dodecyl-N^3,N^3-dimethylpropane-1,3-diamine) in water.
# Carbon dioxide and the surfactant-water composition were co-injected into the carbonate core via two separate inlets, at a temperature of 110° C. and at a pressure of 150 bar, with a total flow rate of 4 ft/day, varying the fraction of carbon dioxide from 50% to 95%. Carbon dioxide and water alone were also co-injected into the carbonate core under the same conditions.
# The gas saturation in the core was measured by obtaining a mass balance between what is injected (water+CO2−pump control) and produced water measured by burette (volume) along with a scale (mass).
# The apparent viscosity was calculated based on Darcy's law.
smiles,measurement,setting,value
"CCCCCCCCCCCCNCCCN(C)C [Compound E, N^1-dodecyl-N^3,N^3-dimethylpropane-1,3-diamine]",rise in apparent viscosity,[1],quicker and higher rise in viscosity
same,apparent viscosity of the resulting emulsion,"[2]; CO2 fraction 50% to 95%, versus absence of surfactant",higher apparent viscosity
same,change of apparent viscosity with CO2 fraction,[2]; CO2 fraction increased from 50 to 95%,decreased
same,gas (CO2) saturation increase compared to absence of surfactant,[2]; at each CO2 fraction tested (50% to 95%),2-4 fold
